{"source": "ChEMBL document CHEMBL3044763", "about": "“Inhibitory Activities of Rhodanine Derivatives on Plant Growth” (Biosci Biotechnol Biochem, 1996)", "key": {"[1]": {"assay": "Toxicity in Mus musculus ddY (mouse) assessed as mortality at 450 mg/kg, ip after 1 day", "type": "organism-based", "set-up": "dose 450 mg/kg, route intraperitoneal", "conditions": "in vivo"}, "[2]": {"assay": "Toxicity in Mus musculus ddY (mouse) assessed as mortality at 550 mg/kg, ip after 1 day", "type": "organism-based", "set-up": "dose 550 mg/kg, route intraperitoneal", "conditions": "in vivo"}, "[3]": {"assay": "Toxicity in Mus musculus ddY (mouse) assessed as mortality at 500 mg/kg, ip after 1 day", "type": "organism-based", "set-up": "dose 500 mg/kg, route intraperitoneal", "conditions": "in vivo"}, "[4]": {"assay": "Toxicity in Mus musculus ddY (mouse) assessed as mortality at 650 mg/kg, ip after 1 day", "type": "organism-based", "set-up": "dose 650 mg/kg, route intraperitoneal", "conditions": "in vivo"}, "[5]": {"assay": "Toxicity in Mus musculus ddY (mouse) assessed as mortality at 600 mg/kg, ip after 1 day", "type": "organism-based", "set-up": "dose 600 mg/kg, route intraperitoneal", "conditions": "in vivo"}, "[6]": {"tested_on": "Brassica rapa subsp. oleifera", "assay": "Growth inhibition of Brassica rapa subsp. oleifera assessed as chlorophyll b level at 3 x 10^-5 M after 7 days", "type": "functional", "set-up": "scale not given: the % may be the effect or the level left"}, "[7]": {"assay": "Toxicity in Mus musculus ddY (mouse) assessed as mortality at 400 mg/kg, ip after 1 day", "type": "organism-based", "set-up": "dose 400 mg/kg, route intraperitoneal", "conditions": "in vivo"}, "[8]": {"tested_on": "Brassica rapa subsp. oleifera", "assay": "Growth inhibition of Brassica rapa subsp. oleifera assessed as chlorophyll b level at 5 x 10^-5 M after 7 days", "type": "functional", "set-up": "scale not given: the % may be the effect or the level left"}, "[9]": {"tested_on": "Brassica rapa subsp. oleifera", "assay": "Growth inhibition of Brassica rapa subsp. oleifera assessed as chlorophyll a level at 1 x 10^-4 M after 7 days", "type": "functional", "set-up": "scale not given: the % may be the effect or the level left"}, "[10]": {"tested_on": "Brassica rapa subsp. oleifera", "assay": "Growth inhibition of Brassica rapa subsp. oleifera assessed as chlorophyll a level at 3 x 10^-4 M after 7 days", "type": "functional", "set-up": "scale not given: the % may be the effect or the level left"}, "[11]": {"assay": "Toxicity in Mus musculus ddY (mouse) assessed as mortality at 450 mg/kg, ip after 5 days", "type": "organism-based", "set-up": "dose 450 mg/kg, route intraperitoneal", "conditions": "in vivo"}, "[12]": {"assay": "Toxicity in Mus musculus ddY (mouse) assessed as mortality at 550 mg/kg, ip after 5 days", "type": "organism-based", "set-up": "dose 550 mg/kg, route intraperitoneal", "conditions": "in vivo"}, "[13]": {"assay": "Toxicity in Mus musculus ddY (mouse) assessed as mortality at 500 mg/kg, ip after 5 days", "type": "organism-based", "set-up": "dose 500 mg/kg, route intraperitoneal", "conditions": "in vivo"}, "[14]": {"assay": "Toxicity in Mus musculus ddY (mouse) assessed as mortality at 600 mg/kg, ip after 5 days", "type": "organism-based", "set-up": "dose 600 mg/kg, route intraperitoneal", "conditions": "in vivo"}, "[15]": {"assay": "Toxicity in Mus musculus ddY (mouse) assessed as mortality at 650 mg/kg, ip after 5 days", "type": "organism-based", "set-up": "dose 650 mg/kg, route intraperitoneal", "conditions": "in vivo"}, "[16]": {"assay": "Toxicity in Mus musculus ddY (mouse) assessed as mortality at 400 mg/kg, ip after 5 days", "type": "organism-based", "set-up": "dose 400 mg/kg, route intraperitoneal", "conditions": "in vivo"}, "[17]": {"assay": "Toxicity in Mus musculus ddY (mouse) assessed as mortality at 500 mg/kg, ip after 7 days", "type": "organism-based", "set-up": "dose 500 mg/kg, route intraperitoneal", "conditions": "in vivo"}, "[18]": {"assay": "Toxicity in Mus musculus ddY (mouse) assessed as mortality at 600 mg/kg, ip after 7 days", "type": "organism-based", "set-up": "dose 600 mg/kg, route intraperitoneal", "conditions": "in vivo"}, "[19]": {"assay": "Toxicity in Mus musculus ddY (mouse) assessed as mortality at 550 mg/kg, ip after 7 days", "type": "organism-based", "set-up": "dose 550 mg/kg, route intraperitoneal", "conditions": "in vivo"}, "[20]": {"assay": "Toxicity in Mus musculus ddY (mouse) assessed as mortality at 650 mg/kg, ip after 7 days", "type": "organism-based", "set-up": "dose 650 mg/kg, route intraperitoneal", "conditions": "in vivo"}, "[21]": {"assay": "Toxicity in Mus musculus ddY (mouse) assessed as mortality at 400 mg/kg, ip after 7 days", "type": "organism-based", "set-up": "dose 400 mg/kg, route intraperitoneal", "conditions": "in vivo"}, "[22]": {"assay": "Toxicity in Mus musculus ddY (mouse) assessed as mortality at 450 mg/kg, ip after 6 days", "type": "organism-based", "set-up": "dose 450 mg/kg, route intraperitoneal", "conditions": "in vivo"}, "[23]": {"assay": "Toxicity in Mus musculus ddY (mouse) assessed as mortality at 550 mg/kg, ip after 6 days", "type": "organism-based", "set-up": "dose 550 mg/kg, route intraperitoneal", "conditions": "in vivo"}, "[24]": {"assay": "Toxicity in Mus musculus ddY (mouse) assessed as mortality at 500 mg/kg, ip after 6 days", "type": "organism-based", "set-up": "dose 500 mg/kg, route intraperitoneal", "conditions": "in vivo"}, "[25]": {"assay": "Toxicity in Mus musculus ddY (mouse) assessed as mortality at 650 mg/kg, ip after 6 days", "type": "organism-based", "set-up": "dose 650 mg/kg, route intraperitoneal", "conditions": "in vivo"}, "[26]": {"assay": "Toxicity in Mus musculus ddY (mouse) assessed as mortality at 600 mg/kg, ip after 6 days", "type": "organism-based", "set-up": "dose 600 mg/kg, route intraperitoneal", "conditions": "in vivo"}, "[27]": {"assay": "Toxicity in Mus musculus ddY (mouse) assessed as mortality at 400 mg/kg, ip after 6 days", "type": "organism-based", "set-up": "dose 400 mg/kg, route intraperitoneal", "conditions": "in vivo"}, "[28]": {"assay": "Toxicity in Mus musculus ddY (mouse) assessed as mortality at 450 mg/kg, ip after 7 days", "type": "organism-based", "set-up": "dose 450 mg/kg, route intraperitoneal", "conditions": "in vivo"}, "[29]": {"assay": "Toxicity in Mus musculus ddY (mouse) assessed as mortality at 450 mg/kg, ip after 4 days", "type": "organism-based", "set-up": "dose 450 mg/kg, route intraperitoneal", "conditions": "in vivo"}, "[30]": {"assay": "Toxicity in Mus musculus ddY (mouse) assessed as mortality at 550 mg/kg, ip after 4 days", "type": "organism-based", "set-up": "dose 550 mg/kg, route intraperitoneal", "conditions": "in vivo"}}, "data": [{"smiles": "O=C(O)CN1C(=O)CSC1=S", "note": "[RHODANINE-3-ACETIC ACID]", "values": [{"measurement": "mortality at 24 h", "setting": "[1]", "value": 0, "unit": "%"}, {"measurement": "mortality at 24 h", "setting": "[2]", "value": 0, "unit": "%"}, {"measurement": "mortality at 24 h", "setting": "[3]", "value": 0, "unit": "%"}, {"measurement": "mortality at 24 h", "setting": "[4]", "value": 20, "unit": "%"}, {"measurement": "mortality at 24 h", "setting": "[5]", "value": 20, "unit": "%"}, {"measurement": "Activity", "setting": "[6]", "value": 7.05, "unit": "%"}, {"measurement": "mortality at 24 h", "setting": "[7]", "value": 0, "unit": "%"}, {"measurement": "Activity", "setting": "[8]", "value": 7.35, "unit": "%"}, {"measurement": "Activity", "setting": "[9]", "value": 14.1, "unit": "%"}, {"measurement": "Activity", "setting": "[10]", "value": 10.17, "unit": "%"}, {"measurement": "mortality at 120 h", "setting": "[11]", "value": 20, "unit": "%"}, {"measurement": "mortality at 120 h", "setting": "[12]", "value": 80, "unit": "%"}, {"measurement": "mortality at 120 h", "setting": "[13]", "value": 20, "unit": "%"}, {"measurement": "mortality at 120 h", "setting": "[14]", "value": 80, "unit": "%"}, {"measurement": "mortality at 120 h", "setting": "[15]", "value": 100, "unit": "%"}, {"measurement": "mortality at 120 h", "setting": "[16]", "value": 0, "unit": "%"}, {"measurement": "mortality at 168 h", "setting": "[17]", "value": 40, "unit": "%"}, {"measurement": "mortality at 168 h", "setting": "[18]", "value": 80, "unit": "%"}, {"measurement": "mortality at 168 h", "setting": "[19]", "value": 80, "unit": "%"}, {"measurement": "mortality at 168 h", "setting": "[20]", "value": 100, "unit": "%"}, {"measurement": "mortality at 168 h", "setting": "[21]", "value": 0, "unit": "%"}, {"measurement": "mortality at 144 h", "setting": "[22]", "value": 20, "unit": "%"}, {"measurement": "mortality at 144 h", "setting": "[23]", "value": 80, "unit": "%"}, {"measurement": "mortality at 144 h", "setting": "[24]", "value": 40, "unit": "%"}, {"measurement": "mortality at 144 h", "setting": "[25]", "value": 100, "unit": "%"}, {"measurement": "mortality at 144 h", "setting": "[26]", "value": 80, "unit": "%"}, {"measurement": "mortality at 144 h", "setting": "[27]", "value": 0, "unit": "%"}, {"measurement": "mortality at 168 h", "setting": "[28]", "value": 20, "unit": "%"}, {"measurement": "mortality at 96 h", "setting": "[29]", "value": 20, "unit": "%"}, {"measurement": "mortality at 96 h", "setting": "[30]", "value": 80, "unit": "%"}]}]}
